Columns and labels:
[1] = test system: TGF-β-stimulated SMAD3 phosphorylation in BEAS-2B cells; assay: Cellular ALK5 potency assay, inhibition of TGF-β stimulated pSMAD3 formation in BEAS-2B cells; format: cell-based; details: Homo sapiens, inhibition of TGF-β (10 ng/mL) stimulated pSMAD3 formation, 1 hour compound incubation, read-out: BEAS2B pIC50 (converted)
In short: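 Phospho-SMAD3 was quantified by AlphaLISA in lysates of human lung epithelial BEAS-2B cells. Compound was added 1 h (37 °C, HEPES/BSA-supplemented HBSS) before a 30 min challenge with 10 ng/mL TGF-β. Values are pIC50 relative to stimulated cells without compound.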

[2] = biological target: T1, recombinant human ALK5 (TGF-βR1) protein (Homo sapiens, UniProt P36897); assay: Biochemical ALK5 (TGF-βR1) assay to measure pKi (LANCE Ultra ULight kinase assay); details: apparent pKi, converted from pIC50 using the Cheng-Prusoff equation
T1 construct: purchased Life Technologies PR9075A
T1 sequence (P36897 34-503): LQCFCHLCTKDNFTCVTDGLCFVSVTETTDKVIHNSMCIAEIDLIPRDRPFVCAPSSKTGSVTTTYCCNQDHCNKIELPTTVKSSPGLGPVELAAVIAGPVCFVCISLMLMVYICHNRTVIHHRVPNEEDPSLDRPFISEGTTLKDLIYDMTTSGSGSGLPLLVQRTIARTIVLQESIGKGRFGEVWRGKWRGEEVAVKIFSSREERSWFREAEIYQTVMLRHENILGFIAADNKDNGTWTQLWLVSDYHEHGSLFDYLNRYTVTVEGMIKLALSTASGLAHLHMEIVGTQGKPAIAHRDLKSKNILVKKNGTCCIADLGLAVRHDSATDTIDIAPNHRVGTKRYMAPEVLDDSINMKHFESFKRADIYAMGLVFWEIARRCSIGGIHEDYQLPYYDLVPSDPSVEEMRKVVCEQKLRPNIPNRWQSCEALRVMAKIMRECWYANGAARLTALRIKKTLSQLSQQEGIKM
In short: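 TR-FRET kinase format: compound dose range 10 μM–25 pM equilibrated 60 min with human ALK5 and ULight-labelled topoisomerase 2α peptide in HEPES/MgCl2 buffer pH 7.5 with DTT. Reaction started with ATP (125 μM stock, 5× final), 60 min at 37° C, stopped with EDTA/Eu-anti-phospho antibody; pKi derived from pIC50 via Cheng-Prusoff.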

Row | SMILES | Ki [2] | IC50 [1]
1 | Fc1ccc(Cl)cc1-c1n[nH]cc1-c1ccc2ncc(NCC3CCNC3)cc2n1 (stereo not drawn) [Compound 1-16, 6-[3-(5-chloro-2-fluoro-phenyl)-1H-pyrazol-4-yl]-N-(pyrrolidin-3-ylmethyl)-1,5-naphthyridin-3-amine] | 0.0398 to 0.316 nM | 25.1 to 158 nM
2 | O=C(OCc1ccccc1)N1CCC2(CCN(c3cnc4ccc(-c5c[nH]nc5-c5cc(Cl)ccc5F)nc4c3)C2)C1 (stereo not drawn) [Compound 1-35, benzyl 7-[6-[3-(5-chloro-2-fluoro-phenyl)-1H-pyrazol-4-yl]-1,5-naphthyridin-3-yl]-2,7-diazaspiro[4.4]nonane-2-carboxylate] | 3.98 to 31.6 nM | 200 to 1260 nM
3 | CNCCn1ccc(-c2cnc3ccc(-c4nc[nH]c4-c4cc(Cl)ccc4F)nc3c2)n1 [Compound 2-16, 2-(3-(6-(5-(5-chloro-2-fluorophenyl)-1H-imidazol-4-yl)-1,5-naphthyridin-3-yl)-1H-pyrazol-1-yl)-N-methylethan-1-amine] | 0.0398 to 0.316 nM | 25.1 to 158 nM
4 | Fc1ccc(Cl)cc1-c1n[nH]cc1-c1ccc2ncc(C3=CCNC3)cc2n1 [Compound 1-93, 2-[3-(5-chloro-2-fluoro-phenyl)-1H-pyrazol-4-yl]-7-(2,5-dihydro-1H-pyrrol-3-yl)-1,5-naphthyridine] | 0.0398 to 0.316 nM | ≤ 20 nM
5 | Fc1ccc(Cl)cc1-c1n[nH]cc1-c1ccc2ncc(-c3nc4n(n3)CCNC4)cc2n1 [Compound 1-100, 2-(3-(5-chloro-2-fluorophenyl)-1H-pyrazol-4-yl)-7-(5,6,7,8-tetrahydro-[1,2,4]triazolo[1,5-a]pyrazin-2-yl)-1,5-naphthyridine] | 0.0398 to 0.316 nM | 25.1 to 158 nM
6 | CNCCn1cc(-c2cnc3ccc(-c4nc[nH]c4-c4cc(Cl)ccc4F)nc3c2)cn1 [Compound 2-19, 2-[4-[6-[5-(5-chloro-2-fluoro-phenyl)-1H-imidazol-4-yl]-1,5-naphthyridin-3-yl]pyrazol-1-yl]-N-methyl-ethanamine] | 0.0398 to 0.316 nM | 25.1 to 158 nM

Second part, led by results:

Row | Ki [2] | SMILES | IC50 [1]
7 | 0.398 to 3.16 nM | Fc1cc(F)c(-c2n[nH]cc2-c2ccc3ncc(-c4cnc5n4CCCN5)cc3n2)cc1Cl [Compound 6-60, 2-[3-(5-chloro-2,4-difluoro-phenyl)-1H-pyrazol-4-yl]-7-(5,6,7,8-tetrahydroimidazo[1,2-a]pyrimidin-3-yl)-1,5-naphthyridine] | 25.1 to 158 nM
8 | 0.0398 to 0.316 nM | CNCCn1cc(-c2cnc3ccc(-c4nc[nH]c4-c4cccc(COC)c4)nc3c2)cn1 [Compound 15-3, 2-(4-(6-(5-(3-(methoxymethyl)phenyl)-1H-imidazol-4-yl)-1,5-naphthyridin-3-yl)-1H-pyrazol-1-yl)-N-methylethan-1-amine] | 25.1 to 158 nM
9 | 0.0398 to 0.316 nM | COCc1cccc(-c2n[nH]cc2-c2ccc3ncc(C4=CCC(N(C)C)CC4)cc3n2)c1 (stereo not drawn) [Compound 14-14, 4-(6-(3-(3-(methoxymethyl)phenyl)-1H-pyrazol-4-yl)-1,5-naphthyridin-3-yl)-N,N-dimethylcyclohex-3-en-1-amine] | 25.1 to 158 nM
10 | 0.0398 to 0.316 nM | CC(C)N1CCN(CCNc2cnc3ccc(-c4c[nH]nc4-c4cc(Cl)c(F)cc4F)nc3c2)CC1 [Compound 6-1, 6-(3-(5-chloro-2,4-difluorophenyl)-1H-pyrazol-4-yl)-N-(2-(4-isopropylpiperazin-1-yl)ethyl)-1,5-naphthyridin-3-amine] | 25.1 to 158 nM
11 | 0.398 to 3.16 nM | CNCCn1ccc(-c2cnc3ccc(-c4c[nH]nc4-c4cccc(COC)c4)nc3c2)n1 [Compound 14-10, 2-[3-[6-[3-[3-(methoxymethyl)phenyl]-1H-pyrazol-4-yl]-1,5-naphthyridin-3-yl]pyrazol-1-yl]-N-methyl-ethanamine] | 25.1 to 158 nM
12 | 0.0398 to 0.316 nM | CC(C)N1CCN(CCNc2cnc3ccc(-c4nc[nH]c4-c4cc(Cl)c(F)cc4F)cc3c2)CC1 [Compound 22-4, 6-(5-(5-chloro-2,4-difluorophenyl)-1H-imidazol-4-yl)-N-(2-(4-isopropylpiperazin-1-yl)ethyl)quinolin-3-amine] | 25.1 to 158 nM

— US11730720B2, “ALK5 inhibitors” (THERAVANCE BIOPHARMA R&D IP, LLC, priority 2018, dated 2023)
